pIC50: −log10 of the molar value.
Molecular target: T1, recombinant human CCR5 receptor (Homo sapiens, UniProt P51681)
T1 construct: expressed in transfected cells; host or cells: Chinese hamster ovary (CHO) cells; membranes
Assay: Radioligand binding assay for inhibition of the binding of MIP-1α
Settings: displacement of 0.1 nM iodinated MIP-1α; membranes of Chinese hamster ovary cells expressing CCR5
In short: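 Membranes from CHO cells expressing recombinant human CCR5 were incubated with 0.1 nM iodinated MIP-1α, scintillation proximity beads and compound at various concentrations. Bound radioligand was measured by scintillation counting.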

T1 sequence (P51681 whole entry): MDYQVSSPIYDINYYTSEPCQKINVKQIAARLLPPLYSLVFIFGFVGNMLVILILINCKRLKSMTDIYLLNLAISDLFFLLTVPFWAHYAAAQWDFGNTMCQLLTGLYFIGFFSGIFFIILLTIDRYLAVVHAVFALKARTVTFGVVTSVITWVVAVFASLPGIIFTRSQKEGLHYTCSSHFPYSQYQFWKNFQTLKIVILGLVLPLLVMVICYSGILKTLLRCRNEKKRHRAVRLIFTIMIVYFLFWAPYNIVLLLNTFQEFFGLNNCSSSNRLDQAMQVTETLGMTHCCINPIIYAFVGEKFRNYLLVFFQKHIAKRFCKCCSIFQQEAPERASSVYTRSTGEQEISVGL

pIC50 | SMILES
> 5.00 | O=C(Nc1ccccc1)N1CCN(C[C@@H]2CCCN(CCCc3ccccc3)C2)CC1 [Example 245, N-phenyl-4-[[(3R)-1-(3-phenylpropyl)-3-piperidyl]methyl]piperazine-1-carboxamide]
> 5.00 | COc1ccc(CN2CCC[C@@H](CN3CCN(C(=O)Nc4ccccc4)CC3)C2)cn1 [Example 247, 4-({(3R)-1-[(6-methoxypyridin-3-yl)methyl]piperidin-3-yl}methyl)-N-phenyl piperazine-1-carboxamide]
> 5.00 | O=C(Nc1ccccc1)N1CCN(C[C@@H]2CCCN(CCc3ccc(F)cc3)C2)CC1 [Example 248, 4-[[(3R)-1-[2-(4-fluorophenyl)ethyl]-3-piperidyl]methyl]-N-phenyl-piperazine-1-carboxamide]
> 5.00 | O=C(Nc1ccccc1)N1CCN(C[C@@H]2CCCN(CCc3ccc(Cl)cc3)C2)CC1 [Example 249, 4-[[(3R)-1-[2-(4-chlorophenyl)ethyl]-3-piperidyl]methyl]-N-phenyl-piperazine-1-carboxamide]
> 5.00 | COc1ccc(CCN2CCC[C@@H](CN3CCN(C(=O)Nc4ccccc4)CC3)C2)cc1 [Example 250, 4-[[(3R)-1-[2-(4-methoxyphenyl)ethyl]-3-piperidyl]methyl]-N-phenyl-piperazine-1-carboxamide]
> 5.00 | O=C(Nc1ccccc1)N1CCN(C[C@@H]2CCCN(CCc3ccc(F)cc3Cl)C2)CC1 [Example 251, 4-[[(3R)-1-[2-(2-chloro-4-fluoro-phenyl)ethyl]-3-piperidyl]methyl]-N-phenyl-piperazine-1-carboxamide]
> 5.00 | O=C(Nc1ccccc1)N1CCN(C[C@@H]2CCCN(CCc3c(Cl)cccc3Cl)C2)CC1 [Example 252, 4-[[(3R)-1-[2-(2,6-dichlorophenyl)ethyl]-3-piperidyl]methyl]-N-phenyl-piperazine-1-carboxamide]
> 5.00 | O=C(Nc1ccccc1)N1CCN(C[C@@H]2CCCN(CCc3ccc(Cl)c(Cl)c3)C2)CC1 [Example 253, 4-[[(3R)-1-[2-(3,4-dichlorophenyl)ethyl]-3-piperidyl]methyl]-N-phenyl piperazine-1-carboxamide]
> 5.00 | CS(=O)(=O)c1ccc(CCCN2CCC[C@@H](CN3CCN(C(=O)Nc4ccccc4)CC3)C2)cc1 [Example 254, 4-[[(3R)-1-[3-(4-methylsulfonylphenyl)propyl]-3-piperidyl]methyl]-N-phenyl-piperazine-1-carboxamide]
> 5.00 | O=C(Nc1ccc(Cl)c(Cl)c1)N1CCN(C[C@@H]2CCCN(Cc3ccc(N4CCOCC4)nc3)C2)CC1 [Example 255, N-(3,4-dichlorophenyl)-4-[[(3R)-1-[(6-morpholin-4-ylpyridin-3-yl)methyl]-3-piperidyl]methyl]piperazine-1-carboxamide]
> 5.00 | O=C(Nc1ccc(Cl)c(Cl)c1)N1CCN(C[C@@H]2CCCN(Cc3ccc(Cl)nc3)C2)CC1 [Example 256, 4-({(3R)-1-[(6-chloropyridin-3-yl)methyl]piperidin-3-yl}methyl)-N-(3,4-dichlorophenyl)piperazine-1-carboxamide]
> 5.00 | O=C(Nc1ccc(Cl)c(Cl)c1)N1CCN(C[C@@H]2CCCN(Cc3ccc(O)nc3)C2)CC1 [Example 257, N-(3,4-dichlorophenyl)-4-({(3R)-1-[(6-hydroxypyridin-3-yl)methyl]piperidin-3-yl}methyl)piperazine-1-carboxamide]
> 5.00 | COCCOc1ccc(CN2CCC[C@@H](CN3CCN(C(=O)Nc4ccc(Cl)c(Cl)c4)CC3)C2)cn1 [Example 258, N-(3,4-dichlorophenyl)-4-[((3R)-1-{[6-(2-methoxyethoxy)pyridin-3-yl]methyl}piperidin-3-yl)methyl]piperazine-1-carboxamide]
> 5.00 | CC(C)N1CCN[C@@H](C(=O)N2CCN(C(=O)Nc3cccc(Oc4ccccc4)c3)CC2)C1 [Example 260, 4-{[(2R)-4-Isopropylpiperazin-2-yl]carbonyl}-N-(3-phenoxyphenyl) piperazine-1-carboxamide]
> 5.00 | CC(C)N1CCN[C@@H](C(=O)N2CCN(C(=O)Nc3ncc(Cl)s3)CC2)C1 [Example 264, N-(5-Chloro-1,3-thiazol-2-yl)-4-{[(2R)-4-isopropylpiperazin-2-yl]carbonyl}piperazine-1-carboxamide]
> 5.00 | CC(C)N1CCN[C@@H](C(=O)N2CCN(C(=O)Nc3ccc(Cl)c(F)c3)CC2)C1 [Example 265, N-(4-Chloro-3-fluorophenyl)-4-{[(2R)-4-isopropylpiperazin-2-yl]carbonyl}piperazine-1-carboxamide]
> 5.00 | Nc1ncccc1CN1CCCC(CN2CCN(C(=O)Nc3ccc(F)c(Cl)c3)CC2)C1 (stereo not shown) [Example 266, 4-({1-[(2-aminopyridin-3-yl)methyl]piperidin-3-yl}methyl)-N-(3-chloro-4-fluorophenyl)piperazine-1-carboxamide]

pIC50 | SMILES
> 5.00 | O=C(Nc1ccc(Cl)c(Cl)c1)N1CCN(C(=O)[C@H]2CN(CC3CC3)CCN2)CC1 [Example 268, 4-{[(2R)-4-(cyclopropylmethyl)piperazin-2-yl]carbonyl}-N-(3,4-dichlorophenyl)piperazine-1-carboxamide]
> 5.00 | CC(CC(C)(C)O)N1CCN[C@@H](C(=O)N2CCN(C(=O)Nc3ccc(Cl)c(Cl)c3)CC2)C1 (stereo partly drawn) [Example 269, N-(3,4-dichlorophenyl)-4-{[(2R)-4-(3-hydroxy-1,3-dimethylbutyl)piperazin-2-yl]carbonyl}piperazine-1-carboxamide]
> 5.00 | CCCC(C)N1CCN[C@@H](C(=O)N2CCN(C(=O)Nc3ccc(Cl)c(Cl)c3)CC2)C1 (stereo partly drawn) [Example 270, N-(3,4-dichlorophenyl)-4-{[(2R)-4-(1-methylbutyl)piperazin-2-yl]carbonyl}piperazine-1-carboxamide]
> 5.00 | O=C(Nc1ccc(Cl)c(Cl)c1)N1CCN(C(=O)[C@H]2CN(CC3CCOC3)CCN2)CC1 (stereo partly drawn) [Example 271, N-(3,4-dichlorophenyl)-4-{[(2R)-4-(tetrahydrofuran-3-ylmethyl)piperazin-2-yl]carbonyl}piperazine-1-carboxamide]
> 5.00 | O=C(Nc1ccc(Cl)c(Cl)c1)N1CCN(C(=O)[C@H]2CN(CCCc3ncc(F)cn3)CCN2)CC1 [Example 273, N-(3,4-dichlorophenyl)-4-({(2R)-4-[3-(5-fluoropyrimidin-2-yl)propyl]piperazin-2-yl}carbonyl)piperazine-1-carboxamide]
> 5.00 | O=C(Nc1ccc(Cl)c(Cl)c1)N1CCN(C(=O)[C@H]2CN(C3CCC3)CCN2)CC1 [Example 275, 4-{[(2R)-4-Cyclobutylpiperazin-2-yl]carbonyl}-N-(3,4-dichlorophenyl)piperazine-1-carboxamide]
> 5.00 | O=C(Nc1ccc(Cl)c(Cl)c1)N1CCN(C(=O)[C@H]2CN(C3CCCC3)CCN2)CC1 [Example 276, 4-{[(2R)-4-Cyclopentylpiperazin-2-yl]carbonyl}-N-(3,4-dichlorophenyl)piperazine-1-carboxamide]
> 5.00 | O=C(Nc1ccc(Cl)c(Cl)c1)N1CCN(C(=O)[C@H]2CN(C3CCCCC3)CCN2)CC1 [Example 277, 4-{[(2R)-4-Cyclohexylpiperazin-2-yl]carbonyl}-N-(3,4-dichlorophenyl)piperazine-1-carboxamide]
> 5.00 | O=C(Nc1ccc(Cl)c(Cl)c1)N1CCN(C(=O)[C@H]2CN(C3CCC(O)(c4ccccn4)CC3)CCN2)CC1 (stereo partly drawn) [Example 279, N-(3,4-Dichlorophenyl)-4-{[(2R)-4-(4-hydroxy-4-pyridin-2-ylcyclohexyl)piperazin-2-yl]carbonyl}piperazine-1-carboxamide]
> 5.00 | O=C(Nc1ccc(Cl)c(Cl)c1)N1CCN(C(=O)[C@H]2CN(C3CCSCC3)CCN2)CC1 [Example 280, N-(3,4-Dichlorophenyl)-4-{[(2R)-4-(tetrahydro-2H-thiopyran-4-yl)piperazin-2-yl]carbonyl}piperazine-1-carboxamide]
> 5.00 | CC(C1CC1)N1CCN[C@@H](C(=O)N2CCN(C(=O)Nc3ccc(Cl)c(Cl)c3)CC2)C1 (stereo partly drawn) [Example 281, 4-{[(2R)-4-(1-Cyclopropylethyl)piperazin-2-yl]carbonyl}-N-(3,4-dichlorophenyl)piperazine-1-carboxamide]
> 5.00 | CC(C)N1CCN[C@@H](C(=O)N2CCN(C(=O)Nc3cc(Cl)cc(Cl)c3)CC2)C1 [Example 287, N-(3,5-Dichlorophenyl)-4-{[(2R)-4-isopropylpiperazin-2-yl]carbonyl}piperazine-1-carboxamide]
> 5.00 | CC(C)N1CCN[C@@H](C(=O)N2CCN(C(=O)Nc3cc(F)cc(C(F)(F)F)c3)CC2)C1 [Example 288, N-[3-Fluoro-5-(trifluoromethyl)phenyl]-4-{[(2R)-4-isopropylpiperazin-2-yl]carbonyl}piperazine-1-carboxamide]
> 5.00 | CC(C)N1CCN[C@@H](C(=O)N2CCN(C(=O)Nc3nc(C(F)(F)F)cs3)CC2)C1 [Example 290, 4-{[(2R)-4-Isopropylpiperazin-2-yl]carbonyl}-N-[4-(trifluoromethyl)-1,3-thiazol-2-yl]piperazine-1-carboxamide]
> 5.00 | CC(C)N1CCN[C@@H](C(=O)N2CCN(C(=O)Nc3ccc(C#N)c(C(F)(F)F)c3)CC2)C1 [Example 292, N-[4-Cyano-3-(trifluoromethyl)phenyl]-4-{[(2R)-4-isopropylpiperazin-2-yl]carbonyl}piperazine-1-carboxamide]
> 5.00 | C=CCN1CCN[C@@H](C(=O)N2CCN(C(=O)Nc3ccc(Cl)c(Cl)c3)CC2)C1 [Example 303, N-(3,4-dichlorophenyl)-4-{[(2R)-4-(prop-2-en-1-yl)piperazin-2-yl]carbonyl}piperazine-1-carboxamide]
> 5.00 | C=C(C)CN1CCN[C@@H](C(=O)N2CCN(C(=O)Nc3ccc(Cl)c(Cl)c3)CC2)C1 [Example 304, N-(3,4-dichlorophenyl)-4-{[(2R)-4-(2-methylprop-2-en-1-yl)piperazin-2-yl]carbonyl}piperazine-1-carboxamide]

From US8710224B2, “Heterocyclic compounds as CCR2B antagonists” (AstraZeneca AB, priority 2004, dated 2014)
